In patent US20240207293A1, “COMPOSITION FOR IMPROVING INTESTINAL MICROBIAL POPULATION COMPRISING GALACTOSE” (Quorum Bio Co., Ltd., priority 2021, published 2024):

Legend:
Format in all cases: in vivo, C57BL/6J mouse
Akkermansia = test: Metagenome analysis of feces in high-fat diet induced obesity model: proportion of Akkermansia; conditions: for Akkermansia Average (%): feces after 8 weeks
Method: (§1) A 5-week-old male C57BL/6J mouse prepared in Example 1.2 were used after a 2-week acclimatization process, and then adjustment of body weight for each group. From the time the mouse reached 7 weeks of age, obesity was induced with a high fat diet (HFD). The mice were fed ad libitum with a general feed or a high-fat diet feed for 16 weeks, and PBS and galactose were orally administered daily to each group. The input amount and the remaining amount of the feed were measured twice a week to calculate daily caloric intake, and the body weight was measured once a week at a designated time. For microbiome analysis, feces were collected as shown in FIG. 1 and analysis was requested to Macrogen Inc. Feces were collected after selecting five mice whose body weight was closest to the average. The number of animals in each group was set to 8. After 8 weeks of the experiment, metagenome analysis was performed by collecting feces from the 3rd group (HFD-PBS), the 5th group (HFD-Gal 100 mg/kg), and the 6th group (HFD-Gal 50 mg/kg). The results of the metagenomic analysis were obtained by requesting metagenome sequencing to Macrogen Co., Ltd. For the experimental results, significance was tested using the TTEST method, and when the P value was less than 0.05, that value was determined to be significant ((*)<0.05, (**)<0.01, (***)<0.001).

Lactobacillus = test: Metagenome analysis of feces in high-fat diet induced obesity model: proportion of Lactobacillus; conditions: for Lactobacillus Average (%): feces after 8 weeks
Method: as §1

[1] = Measurement of body weight (weight gain) in mice on normal or high-fat diet; conditions: 16 weeks, oral daily, n=8
Method: A 5-week-old male C57BL/6J mouse prepared in Example 1.2 were used after a 2-week acclimatization process, and then adjustment of body weight for each group. From the time the mouse reached 7 weeks of age, obesity was induced with a high fat diet (HFD). The mice were fed ad libitum with a general feed or a high-fat diet feed for 16 weeks, and PBS and galactose were orally administered daily to each group. The input amount and the remaining amount of the feed were measured twice a week to calculate daily caloric intake, and the body weight was measured once a week at a designated time. During the experimental period (16 weeks) designed in Example 1.3, the body weight of the experimental animals were measured at a predetermined time every week before administration of galactose or PBS, and body weight change (weight gain) and survival rate were measured (allowed to euthanize if the body weight decreases to less than 20% of the initial body weight). The weight gain was calculated by setting the body weight (initial body weight) of the experimental animal at 7 weeks of age as 100% and then calculating the body weight measured at each time point as a relative value to the initial body weight.

Alistipes = test: Metagenome analysis of feces in high-fat diet induced obesity model: proportion of Alistipes; conditions: for Alistipes Average (%): feces after 8 weeks
Method: as §1

[2] = Intraperitoneal glucose tolerance test
Method: The experimental animals were kept hungry (12-hour fasting) from 9:00 p.m. the day before the test to 9:00 a.m. the day of the test, and then a blood glucose test was performed. To keep a hungry condition, feed and straw litter were removed to induce fasting. A 10% (w/v) glucose (in PBS) solution sterilized by 0.2 μm filtration was prepared. After intraperitoneally administering 2 mg glucose/g, volume=body weight*20 (μl) for each individual, the mice were again put in the cage, and blood glucose levels were measured every 0, 30, 60, 90, and 120 minutes. The blood glucose tests were performed by collecting blood from the caudal vein. The intraperitoneal glucose tolerance test was performed 13 weeks after inducing obesity with a high-fat diet.

[3] = group 5: high fat diet, galactose 100 mg/kg oral daily
[4] = group 6: high fat diet, galactose 50 mg/kg oral daily
[5] = high fat diet, galactose-administered group vs PBS control

SMILES: O=C[C@H](O)[C@@H](O)[C@@H](O)[C@H](O)CO [Galactose, galactose]
- Akkermansia Average (%) (Akkermansia; [3]): 1.365%
- Akkermansia Average (%) (Akkermansia; [4]): 0.135%
- proportion of Akkermansia as compared with a control group (Akkermansia; [5]): increased
- Lactobacillus Average (%) (Lactobacillus; [3]): 3.8375%
- Lactobacillus Average (%) (Lactobacillus; [4]): 2.17%
- proportion of Lactobacillus as compared with a control group (Lactobacillus; [5]): increased
- weight gain vs PBS-administered group ([1]; general diet group): no significant difference
- weight gain vs PBS-administered group ([1]; high-fat diet feed group): significantly reduced
- Alistipes Average (%) (Alistipes; [3]): 1.0275%
- Alistipes Average (%) (Alistipes; [4]): 1.9675%
- proportion of Alistipes as compared with a control group (Alistipes; [5]): increased
- blood sugar levels at 120 minutes ([2]; high-fat diet group, measured at 120 minutes after i.p. glucose): comparable to those in the normal diet group
- blood glucose level vs control group (PBS-administered) ([2]; high-fat diet intake group (HD), 13 weeks after inducing obesity, 2 mg glucose/g i.p.): significantly decreased
- blood glucose by galactose administration ([2]; normal diet intake group (ND), 2 mg glucose/g i.p., 12-hour fasting): decreased
